Experimental data reported in PubChem BioAssay (NCI).
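All cell lines were grown in 96-well plates and treated with compound for 48 hours. GI50 is the concentration that inhibits growth by half. TGI: concentration producing complete growth inhibition.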

Key:
Assay in all cases: DTP human tumour cell line panel, 48 h
LOX IMVI melanoma = system: LOX IMVI melanoma
NCI/ADR-RES ovarian = system: NCI/ADR-RES ovarian
RXF 393 renal = system: RXF 393 renal
TK-10 renal = system: TK-10 renal
DLD-1 colon = system: DLD-1 colon
DMS 114 small cell lung = system: DMS 114 small cell lung
DMS 273 small cell lung = system: DMS 273 small cell lung
HOP-18 NSCLC = system: HOP-18 NSCLC
KM20L2 colon = system: KM20L2 colon
LXFL 529 NSCLC = system: LXFL 529 NSCLC
M19-MEL melanoma = system: M19-MEL melanoma
SNB-78 CNS = system: SNB-78 CNS
XF 498 CNS = system: XF 498 CNS

Structure (SMILES)	TGI (LOX IMVI melanoma) [µM]	TGI (NCI/ADR-RES ovarian) [µM]	TGI (RXF 393 renal) [µM]	TGI (TK-10 renal) [µM]	further results
CN1CCOC1(C)CO (stereo not given)	> 100	> 100	> 100	> 100	
COc1ccc2c3c1O[C@H]1C(O)CCC4(O)[C@@H](C2)NCC[C@]314 (stereo not given in full)	> 100	> 100		> 100	
N#CSc1nc[nH]c1C(N)=O	> 100	> 100	> 100	> 100	
CN(C)C(=O)NCCN1CCCCCc2ccccc21	> 100	> 100	> 100	> 100	
Cc1ccc2c(c1CCCC(C)(C)O)C(=O)C(=O)C(C(C)C)=C2O			> 100	> 100	TGI (DLD-1 colon): > 100 µM; TGI (DMS 114 small cell lung): > 100 µM; TGI (DMS 273 small cell lung): > 100 µM; TGI (HOP-18 NSCLC): > 100 µM; TGI (KM20L2 colon): > 100 µM; TGI (LXFL 529 NSCLC): > 100 µM; TGI (M19-MEL melanoma): > 100 µM
CCOC(=O)c1nc2c(Cl)c3ncccc3cc2[nH]c1=O		> 100	> 100	> 100	
CC1(C#N)CC(C)(C)C(/C=C2/CC(C)(C)C(/C=C3/OC(=N)CC3(C)C)=N2)=N1 (stereo not given)	> 100	54	44.5	> 100	
Cc1cccc(/C=N/NC(=S)NCCc2ccccn2)n1	> 100	> 73.7		> 100	
C=CCN1C[C@H](C)N([C@H](c2ccc(C(=O)N(CC)CCO)cc2)c2cccc(OC)c2)C[C@H]1C		> 100		> 100	
O=C(C(=O)N1CCc2ccccc21)c1c[nH]c2ccccc12	> 10	> 10	> 10	> 10	
C=CCNC1=C2C[C@@H](C)C[C@@H](OC)[C@@H](OC(=O)CCCN)[C@H](C)/C=C(\C)[C@@H](OC(N)=O)[C@H](OC)/C=C\C=C(/C)C(=O)NC(=CC1=O)C2=O	> 47.3	> 100	42.2	33.4	
CC(=O)Oc1ccccc1-c1cc2ccccc2oc1=O	> 100	> 100			
C[C@]12CCC(=O)C=C1CC[C@@H]1C2CC[C@]2(C)c3nn(-c4ccc(F)cc4)nc3CC12 (stereo not given in full)			> 100	> 100	
Cc1ccc2nc(-c3ccc(N)c(I)c3)sc2c1		> 100	> 100	17.7	
COc1ccc2c(c1)CN1C(=N2)CSC1c1cc([N+](=O)[O-])ccc1Cl (stereo not given)	> 100	> 100	> 100	> 100	
O=c1[nH]cc(COCC(F)(F)C(F)(F)C(F)(F)C(F)F)c(=O)[nH]1	> 100		> 100	> 100	TGI (DLD-1 colon): > 100 µM; TGI (DMS 114 small cell lung): > 100 µM; TGI (HOP-18 NSCLC): > 100 µM; TGI (KM20L2 colon): > 100 µM; TGI (LXFL 529 NSCLC): > 100 µM; TGI (M19-MEL melanoma): > 100 µM
CC(=O)c1csc2c1C(=O)c1scc(C(C)=O)c1C2=O	2.9	3.9	3.9	5.82	

Structure (SMILES)	TGI (LOX IMVI melanoma) [µM]	TGI (NCI/ADR-RES ovarian) [µM]	TGI (RXF 393 renal) [µM]	TGI (TK-10 renal) [µM]	further results
CCC1c2[nH]c3ccccc3c2C[C@H]2C(=O)NC(COC(C)(C)C)C(=O)N12 (stereo not given in full)	> 100	> 100	> 100	> 100	
CC(=O)N(C(=O)CC(=O)N/N=C\c1ccc(Br)c(N(CCC#N)CCC#N)c1)c1ccc(Cl)cc1	> 100	> 100	> 100	> 100	
Cc1cn(C2CC(ON3C(=O)c4ccccc4C3=O)C(CO)O2)c(=O)[nH]c1=O (stereo not given)	> 10	> 10	> 10	> 10	
CCOC(=O)c1csc(NC(=O)C(C)N2CCCCC2)n1 (stereo not given)	> 100	> 100	> 100	> 100	
CCN1c2nc3ccccc3nc2N(CC)c2nc3ccccc3nc21	> 100	> 100	> 100	> 100	
O=C1c2cc3c(cc2CC12Cc1cc4c(cc1C2=O)CCC4)CCCC3 (stereo not given)	> 100	> 100	> 100	> 100	
N#Cc1sc2nc(/C=C3/C=CC=CC3=O)c(O)n2c1N	> 100	> 100	> 100	> 100	
CCN1CCN(c2ccc(Nc3ccnc4ccc5nn(C)nc5c34)cc2)CC1	20.1		22.5	39.4	TGI (DLD-1 colon): 28.3 µM; TGI (DMS 114 small cell lung): 22.6 µM; TGI (KM20L2 colon): 27.4 µM; TGI (LXFL 529 NSCLC): 23.8 µM; TGI (M19-MEL melanoma): 29.8 µM; TGI (SNB-78 CNS): 33.8 µM; TGI (XF 498 CNS): 26.9 µM
CC1=NC(=Cc2ccc(O)cc2)C(=O)N1n1c(-c2ccccc2)nc2ccccc2c1=O	> 100			> 100	
CC1(C)OCC2OC3(c4nc(C#N)c(N)o4)OC(C)(C)OC3C2O1 (stereo not given)	> 100	> 100	> 100	> 100	
Cc1cccc2c1Oc1cc(Cl)ccc1C2NC(=O)CCN1CCOCC1 (stereo not given)	> 100	> 100		> 100	
C[C@H]1[C@H](C)CC[C@]2(C)CC[C@]3(C)C(=C[C@@H](O)[C@@H]4[C@@]5(C)[C@H](O)[C@@H](O)[C@H](O)C(C)(C)[C@@H]5CC[C@]43C)[C@H]12	> 100	> 100	> 100		GI50 (RXF 393 renal): 0.361 µM
COC(=O)C1=C(C)NC(C)=C(C(=O)OC)C1c1ccc(/[N+]([O-])=C/c2ccccc2)cc1	> 100	> 100	41.1	> 100	
c1cc(-c2ncc(-c3ccc4c(c3)CCCO4)o2)ccn1	31	23.1	> 100	89.8	
COc1ccnc2c1C(=O)c1nc3ccccc3c3ccnc-2c13	5.47	0.147	0.86	1.13	
CCN(CC)CCn1nc(N)c2nc3cc(Cl)ccc3nc21	> 100	> 100	> 100	> 100	
